Measured values from ChEMBL document CHEMBL5214960 (J Med Chem, 2022).
Positions count from the first letter of the chain named. ≈ marks a conversion by molar mass, not a printed value. One block for each molecule: values may come before it.

How the values were obtained:
[1] = target: T1, Low molecular weight phosphotyrosine protein phosphatase (Homo sapiens, UniProt P24666); experiment: Inhibition of His-tagged human LMW-PTP expressed in Escherichia coli BL21 using pNPP as substrate incubated for 10 mins by microplate reader based spectrophotometric analysis
T1 sequence (P24666 whole entry): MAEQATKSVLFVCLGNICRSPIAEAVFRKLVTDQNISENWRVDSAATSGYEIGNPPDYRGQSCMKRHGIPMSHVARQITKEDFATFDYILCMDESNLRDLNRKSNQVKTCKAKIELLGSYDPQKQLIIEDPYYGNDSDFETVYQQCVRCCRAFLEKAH

[2] = Inhibition of PTP-Meg2 (unknown origin); parameters: species or system Homo sapiens
[3] = target: T2, Low molecular weight phosphotyrosine protein phosphatase (Mus musculus, UniProt Q9D358); experiment: Inhibition of N-terminal His-tagged full length mouse LMW-PTP expressed in Escherichia coli BL21(DE3) by […] analysis
T2 sequence (Q9D358 whole entry): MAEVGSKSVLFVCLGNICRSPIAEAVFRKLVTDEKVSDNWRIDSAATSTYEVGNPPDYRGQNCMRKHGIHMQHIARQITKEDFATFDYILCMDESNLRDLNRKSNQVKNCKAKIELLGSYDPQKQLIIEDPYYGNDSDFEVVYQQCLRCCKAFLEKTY

[4] = Aqueous solubility of compound at pH 6 by HPLC analysis; assay type: physicochemical; settings: buffer
CYP2D6 = CYP2D6 (Homo sapiens, UniProt P10635); experiment: Inhibition of human hepatic CYP2D6 using bufuralol HCL as substrate measured after 3 mins by LC-MS analysis relative to control; assay type: ADME, tissue-based; parameters: concentration or dose not given beside the values; settings: human hepatic CYP2D6 (liver), probe bufuralol HCl
Sequence of CYP2D6 (P10635 whole entry): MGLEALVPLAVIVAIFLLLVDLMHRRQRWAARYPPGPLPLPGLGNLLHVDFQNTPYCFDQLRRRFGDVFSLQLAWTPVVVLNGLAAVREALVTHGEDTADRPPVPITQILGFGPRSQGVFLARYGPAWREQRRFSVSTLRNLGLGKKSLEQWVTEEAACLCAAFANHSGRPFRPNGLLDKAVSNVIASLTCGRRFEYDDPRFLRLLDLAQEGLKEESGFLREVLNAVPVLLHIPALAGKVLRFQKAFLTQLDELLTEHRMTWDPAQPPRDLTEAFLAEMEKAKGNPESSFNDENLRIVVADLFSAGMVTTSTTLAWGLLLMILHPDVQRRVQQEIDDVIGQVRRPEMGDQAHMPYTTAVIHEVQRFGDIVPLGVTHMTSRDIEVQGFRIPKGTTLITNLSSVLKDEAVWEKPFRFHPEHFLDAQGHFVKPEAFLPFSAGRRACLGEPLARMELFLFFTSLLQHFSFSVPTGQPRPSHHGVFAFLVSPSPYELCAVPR

CYP2C9 = CYP2C9 (Homo sapiens, UniProt P11712); experiment: Inhibition of human hepatic CYP2C9 using diclofenac as substrate measured after 10 mins by LC-MS analysis relative to control; assay type: ADME, tissue-based; parameters: concentration or dose not given beside the values; settings: human hepatic CYP2C9 (liver), probe diclofenac
Sequence of CYP2C9 (P11712 whole entry): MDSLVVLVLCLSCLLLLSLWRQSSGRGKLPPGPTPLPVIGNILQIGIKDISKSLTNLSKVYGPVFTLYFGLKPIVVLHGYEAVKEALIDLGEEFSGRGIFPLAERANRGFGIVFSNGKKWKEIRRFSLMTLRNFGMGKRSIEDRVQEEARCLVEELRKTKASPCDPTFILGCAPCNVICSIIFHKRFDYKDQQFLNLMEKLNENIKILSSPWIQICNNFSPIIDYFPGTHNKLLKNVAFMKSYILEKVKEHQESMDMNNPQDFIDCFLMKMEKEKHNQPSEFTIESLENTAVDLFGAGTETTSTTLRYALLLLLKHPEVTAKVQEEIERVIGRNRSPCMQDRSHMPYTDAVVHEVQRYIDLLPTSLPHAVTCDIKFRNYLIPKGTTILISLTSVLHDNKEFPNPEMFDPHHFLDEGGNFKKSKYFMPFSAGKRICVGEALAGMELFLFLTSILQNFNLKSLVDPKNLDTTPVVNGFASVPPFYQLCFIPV

CYP3A4 = CYP3A4 (Homo sapiens, UniProt P08684); experiment: Inhibition of human hepatic CYP3A4 using midazolam as substrate measured after 3 mins by LC-MS analysis relative to control; assay type: ADME, tissue-based; parameters: concentration or dose not given beside the values; settings: human hepatic CYP3A4 (liver), probe midazolam
Sequence of CYP3A4 (P08684 whole entry): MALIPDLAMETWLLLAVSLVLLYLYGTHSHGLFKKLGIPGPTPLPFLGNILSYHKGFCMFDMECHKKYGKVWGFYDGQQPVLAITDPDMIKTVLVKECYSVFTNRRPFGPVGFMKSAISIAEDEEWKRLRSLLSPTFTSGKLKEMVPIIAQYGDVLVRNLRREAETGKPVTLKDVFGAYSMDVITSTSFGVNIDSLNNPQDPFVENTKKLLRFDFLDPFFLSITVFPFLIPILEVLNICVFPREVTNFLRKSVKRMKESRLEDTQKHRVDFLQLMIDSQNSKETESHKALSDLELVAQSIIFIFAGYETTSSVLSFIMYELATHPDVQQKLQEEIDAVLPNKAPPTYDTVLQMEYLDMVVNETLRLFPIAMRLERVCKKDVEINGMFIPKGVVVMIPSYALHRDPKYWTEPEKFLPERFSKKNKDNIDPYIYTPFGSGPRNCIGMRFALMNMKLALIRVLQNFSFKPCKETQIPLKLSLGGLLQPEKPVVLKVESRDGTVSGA

[5] = Metabolic stability in human hepatic microsome at 4 uM measured after 30 mins by LC-MS analysis; assay type: ADME; settings: liver microsomes, read-out: Stability
[6] = Metabolic stability in mouse hepatic microsome at 4 uM measured after 30 mins by LC-MS analysis; assay type: ADME; settings: liver microsomes, read-out: Stability
[7] = Metabolic stability in dog hepatic microsome at 4 uM measured after 30 mins by LC-MS analysis; assay type: ADME, Canis lupus familiaris; settings: liver microsomes, read-out: Stability
[8] = Plasma protein binding in mouse assessed as unbound fraction measured after 4.5 hrs by LC-MS/MS analysis; assay type: ADME, cell-free
[9] = AUC(0 to 8 hrs) in CD-1 mouse plasma at 10 mg/kg, po measured after 8 hrs by LC-MS/MS analysis; assay type: ADME, organism-based; parameters: dose 10 mg/kg, time 8 hrs, route po; settings: in vivo
[10] = AUC(0 to 8 hrs) in CD-1 mouse plasma at 2 mg/kg, iv measured after 8 hrs by LC-MS/MS analysis; assay type: ADME, organism-based; parameters: dose 2 mg/kg, time 8 hrs, route iv; settings: in vivo
[11] = Cmax in CD-1 mouse plasma at 10 mg/kg, po measured after 8 hrs by LC-MS/MS analysis; assay type: ADME, organism-based; parameters: dose 10 mg/kg, time 8 hrs, route po; settings: mouse, in vivo, 8 h
[12] = Cmax in CD-1 mouse plasma at 2 mg/kg, iv measured after 8 hrs by LC-MS/MS analysis; assay type: ADME, organism-based; parameters: time 8 hrs, dose 2 mg/kg, route iv
[13] = Unbound Cmax in plasma of CD-1 mouse at 10 mg/kg, po measured after 8 hrs by LC-MS/MS analysis; assay type: ADME, organism-based; settings: in vivo
[14] = Unbound Cmax in plasma of CD-1 mouse at 2 mg/kg, iv measured after 8 hrs by LC-MS/MS analysis; assay type: ADME, organism-based; settings: in vivo
[15] = Volume of distribution at steady state in CD-1 mouse plasma at 2 mg/kg, iv measured after 8 hrs by LC-MS/MS analysis; assay type: ADME, organism-based; settings: in vivo
[16] = Half life in CD-1 mouse plasma at 2 mg/kg, iv measured after 8 hrs by LC-MS/MS analysis; assay type: ADME, organism-based; settings: mouse, in vivo, iv, 2 mg/kg, 8 h
[17] = Half life in CD-1 mouse plasma at 10 mg/kg, po measured after 8 hrs by LC-MS/MS analysis; assay type: ADME, organism-based; settings: in vivo
[18] = Oral bioavailability in CD-1 mouse plasma at 10 mg/kg measured after 8 hrs by LC-MS/MS analysis; assay type: ADME, organism-based; settings: CD-1, mouse, plasma
[19] = AUC(0 to 12 hrs) in Sprague-Dawley rat plasma at 30 mg/kg, po measured after 24 hrs by LC-MS/MS analysis; assay type: ADME, organism-based; parameters: time 24 hrs, dose 30 mg/kg, route po; settings: in vivo
[20] = Cmax in Sprague-Dawley rat plasma at 30 mg/kg, po measured after 24 hrs by LC-MS/MS analysis; assay type: ADME, organism-based; parameters: time 24 hrs, dose 30 mg/kg, route po; settings: in vivo
[21] = Unbound Cmax in plasma of Sprague-Dawley rat at 30 mg/kg, po measured after 24 hrs by LC-MS/MS analysis; assay type: ADME, organism-based; settings: in vivo
[22] = Tmax in Sprague-Dawley rat plasma at 30 mg/kg, po measured after 24 hrs by LC-MS/MS analysis; assay type: ADME, organism-based; settings: in vivo
[23] = Half life in Sprague-Dawley rat plasma at 30 mg/kg, po measured after 24 hrs by LC-MS/MS analysis; assay type: ADME, organism-based; settings: in vivo
[24] = target: T3, Low molecular weight phosphotyrosine protein phosphatase (Rattus norvegicus, UniProt P41498); experiment: Inhibition of N-terminal His-tagged full length rat LMW-PTP expressed in Escherichia coli BL21(DE3)
T3 sequence (P41498 whole entry): T2 sequence (Q9D358 whole entry) with K35N, R65K, K80R, Y158H

Structure (SMILES): O=C(CS(=O)(=O)O)Nc1nc2ccc(C(=O)N3CCCC3)cc2s1
IC50 [1]: 300 nM

IC50 [2]: > 200000 nM
IC50 [3]: 200 nM
solubility [4]: 920 µg/mL (≈ 1990 µM)
inhibition at 0.05 h (CYP2D6): 1%
inhibition at 10 min (CYP2C9): 79%
inhibition at 0.05 h (CYP3A4): 0%
remaining at 0.5 h, 4 µM [5]: 34%
remaining at 0.5 h, 4 µM [6]: 50%
remaining at 0.5 h, 4 µM [7]: 59%
Fu [8]: < 0.006
AUC [9]: 5.24 µM·h
AUC [10]: 2.09 µM·h
Cmax [11]: 1.02 µM
Cmax [12]: 4.94 µM
fCmax [13]: < 6 nM
fCmax [14]: < 30 nM
Vdss [15]: 3.4 L/kg
t1/2 [16]: 2 h
t1/2 [17]: 5.2 h
bioavailability [18]: 50%
AUC [19]: 37.1 µM·h
Cmax [20]: 6.12 µM
fCmax [21]: < 43 nM
Tmax [22]: 2.7 h
t1/2 [23]: 3 h
IC50 [24]: 300 nM
Structure (SMILES): Cc1c(Br)cc(NC(=O)C(c2ccccc2)S(=O)(=O)O)cc1Br (configuration not stated)

Structure (SMILES): N.O=C(Nc1nc2ccccc2s1)NS(=O)(=O)O
IC50 [1]: 56 nM
inhibition at 0.05 h (CYP2D6): 0%
inhibition at 10 min (CYP2C9): 0%
inhibition at 0.05 h (CYP3A4): 4%
remaining at 0.5 h, 4 µM [5]: 7%
remaining at 0.5 h, 4 µM [6]: 0%
remaining at 0.5 h, 4 µM [7]: 0%
Fu [8]: 0.07

Structure (SMILES): O=C(CS(=O)(=O)O)Nc1nc2ccc(C(F)(F)F)cc2s1
IC50 [1]: 600 nM

Structure (SMILES): O=C(CS(=O)(=O)O)Nc1nc2cc([N+](=O)[O-])ccc2s1
IC50 [1]: 400 nM

Structure (SMILES): O=C(CS(=O)(=O)O)Nc1ccccc1
IC50 [1]: > 100000 nM

Structure (SMILES): O=C(CS(=O)(=O)O)Nc1cc(Br)cc(C(F)(F)F)c1
IC50 [1]: 5200 nM

Structure (SMILES): O=C(CS(=O)(=O)O)Nc1cc(Cl)cc(Cl)c1
IC50 [1]: 8600 nM

Structure (SMILES): O=C(Nc1ccccc1)NS(=O)(=O)O
IC50 [1]: 121 nM

Structure (SMILES): O=C(CS(=O)(=O)O)Nc1nc2cccc([N+](=O)[O-])c2s1
IC50 [1]: 1500 nM

Structure (SMILES): Cc1ccc2nc(NC(=O)CS(=O)(=O)O)sc2c1
IC50 [1]: 1700 nM

Structure (SMILES): O=C(CS(=O)(=O)O)Nc1nc2ccc([N+](=O)[O-])cc2s1
IC50 [1]: 200 nM
solubility [4]: 590 µg/mL (≈ 1860 µM)
inhibition at 0.05 h (CYP2D6): 1%
inhibition at 10 min (CYP2C9): 0%
inhibition at 0.05 h (CYP3A4): 0%
remaining at 0.5 h, 4 µM [5]: 53%
remaining at 0.5 h, 4 µM [6]: 4%
remaining at 0.5 h, 4 µM [7]: 7%
Fu [8]: 0.057

Structure (SMILES): O=C(CS(=O)(=O)O)Nc1cc(Br)cc([N+](=O)[O-])c1
IC50 [1]: 3400 nM

solubility [4]: 530 µg/mL (≈ 1950 µM)
inhibition at 0.05 h (CYP2D6): 0%
inhibition at 10 min (CYP2C9): 1%
inhibition at 0.05 h (CYP3A4): 6%
remaining at 0.5 h, 4 µM [5]: 18%
remaining at 0.5 h, 4 µM [6]: 3%
remaining at 0.5 h, 4 µM [7]: 11%
Fu [8]: 0.209
Structure (SMILES): O=C(CS(=O)(=O)O)Nc1nc2ccccc2s1

Structure (SMILES): O=C(CS(=O)(=O)O)Nc1nccs1
IC50 [1]: 12200 nM
